The values below come from patent US20070066636A1, “POLYMORPHS OF TARTRATE SALT OF 2-[2-(3-(R)-AMINO-PIPERIDIN-1-YL)-5-FLUORO-6-OXO-6H-PYRIMIDIN-1-YLMETHYL]-BENZONITRILE AND METHODS OF USE THEREFOR” (priority 2005, published 2007).

Molecules are shown by their SMILES. Structures can show the parent of a compound that is named as a salt.

Holding throughout (assay type): physicochemical
Series [1] can be described thus: Slurry interconversion studies in methanol. As to conditions: room temperature, slurry time 5 days. The procedure:
Slurry Experiments: Enough Compound I was added to a given solvent so that undissolved solids were present. The mixture was then agitated in a sealed vial at ambient temperature using either an orbital shaker or a rotating wheel. After several days the solids were isolated by vacuum filtration and allowed to dry at ambient temperature in the fume hood with the cap for the sample vial loosened.
In order to determine the relative stability of the polymorphs Compound I form A was slurried in separate experiments with roughly equal amounts of forms B, C and E in methanol at room temperature. After 12 days the solids were isolated and form A was recovered as the exclusive solid phase (Table 6). In addition to these experiments, slurries of forms B, C and D in the absence of other solid phases provided form A when slurried for 5 days in methanol at room temperature. […] It should be noted that the hydration states of these solid phases may be different for the different forms, which precludes an analysis of the true thermodynamic stability ordering through slurry experiments.

Series [2] is described as follows: Moisture sorption/desorption analysis. As to conditions: for solid form of post moisture sorption/desorption sample by XRPD: after 5%-95%-5% RH cycle; for Weight Change: 25 C. The procedure:
Moisture sorption/desorption data were collected on a VTI SGA-100 Vapor Sorption Analyzer. Sorption and desorption data were collected over a range of 5% to 95% relative humidity (RH) at 10% RH intervals under a nitrogen purge. Sodium chloride (NaCl) and polyvinylpyrrolidone (PVP) were used as the calibration standards. Equilibrium criteria used for analysis were less than 0.0100% weight change in 5 minutes, with a maximum equilibration time of 180 minutes if the weight criterion was not met. The plotted data that contain the percent weight change values at various RH intervals are relative to the initial weight of the sample. The plotted data have not been corrected for the initial moisture content. However, the weight gain data provided in the tables for the various relative humidity ranges are calculated using the sample weight at the beginning of the particular RH event as the initial weight. In particular, the equilibration event wt. % change from initial wt. to 5% RH was calculated as [(wt at 5% RH−initial wt.)/initial wt.]*100; and the sorption event wt. % change from 5% RH to 95% RH was calculated as [(wt. at 95% RH−wt at 5% RH)/wt at 5% RH]*100; and the desorption event wt. % change from 95% RH to 5% RH was calculated as [(wt. at 5% RH−wt at 95% RH)/wt at 95% RH]*100. This type of analysis permits direct comparison of the experimental weight changes to the theoretical values predicted for the inter-conversion of anhydrates to hydrated forms.

The nature of series [3]: Relative humidity (RH) stress of solids, XRPD. As to conditions: ambient, 21 d. On the procedure:
Relative Humidity (RH) Stress: Open vials containing solid samples were placed inside chambers containing saturated salt solutions along with a small amount of the undissolved salt. The chambers were sealed and allowed to stand at ambient temperature for several weeks. Samples were analyzed by X-ray powder diffraction (XRPD) immediately after removing the sample from the RH chamber. The RH values for these salt solutions were obtained from an ASTM standard. See a) “Preparation and Use of Relative Humidity Chambers” SSCI Method MTD 032.01 Mar. 3, 2003; and b) “Standard Practice for Maintaining Constant Relative Humidity by Means of Aqueous Solutions” ASTM Standard E 104-02 (2002).

Setting [4] is: after desorption at about 5% RH, Tables 2C-2F (values fit change relative to initial weight).
[5] abbreviates: after equilibration at about 5% RH, Tables 2C-2F (values fit change relative to initial weight).
Setting [6] is: after sorption at about 95% RH, Tables 2C-2F (values fit change relative to initial weight).

Consider `N#Cc1ccccc1Cn1c(N2CCC[C@@H](N)C2)ncc(F)c1=O` [Form C, tartrate salt of 2-[2-(3-(R)-amino-piperidin-1-yl)-5-fluoro-6-oxo-6H-pyrimidin-1-ylmethyl]-benzonitrile], for which the “XRPD Result after slurry” value in series [1] is recorded as “Form A”. Further, the “solid form of post moisture sorption/desorption sample by XRPD” value in series [2] is listed as “form C”. Moreover, the “Weight Change” value in series [2] (setting [4]) was −0.899%; in series [2] (setting [5]) it was −0.873%; in series [2] (setting [6]), 4.744%. Also, in series [2] (at 95% RH, calculated from desorption weight change and molecular weight), the “molecules of water present for every molecule of compound” value is “approximately 1.5”. In series [2] (moisture sorption/desorption), the “initial weight loss from ambient conditions to 5% RH” value (shortened to “initial weight loss … to 5% RH”) is “approximately 0.9%”. Further, in series [2] (moisture sorption/desorption), the “weight gain between 5% and 95% RH” value came out at 5.7%.
Regarding `N#Cc1ccccc1Cn1c(N2CCC[C@@H](N)C2)ncc(F)c1=O` [Form D, tartrate salt of 2-[2-(3-(R)-amino-piperidin-1-yl)-5-fluoro-6-oxo-6H-pyrimidin-1-ylmethyl]-benzonitrile], in series [1], the “XRPD Result after slurry” value is “Form A”.
As to `N#Cc1ccccc1Cn1c(N2CCC[C@@H](N)C2)ncc(F)c1=O` [Form E, tartrate salt of 2-[2-(3-(R)-amino-piperidin-1-yl)-5-fluoro-6-oxo-6H-pyrimidin-1-ylmethyl]-benzonitrile], the “solid form of post moisture sorption/desorption sample by XRPD” value in series [2] is “form C”. In addition, the figures for the “Weight Change” value in series [2] (setting [4]), in series [2] (setting [5]) and in series [2] (setting [6]) were 0.098%, −0.352% and 8.801%, respectively. In addition, the “initial weight loss … to 5% RH” value in series [2] (moisture sorption/desorption) was “approximately 0.4%”. Moreover, the “weight gain between 5% and 95% RH” value in series [2] (moisture sorption/desorption) turned out to be 9.2%.
Turning to `N#Cc1ccccc1Cn1c(N2CCC[C@@H](N)C2)ncc(F)c1=O` [amorphous Form 2, tartrate salt of 2-[2-(3-(R)-amino-piperidin-1-yl)-5-fluoro-6-oxo-6H-pyrimidin-1-ylmethyl]-benzonitrile], the entries for the “Weight Change” value in series [2] (setting [4]), in series [2] (setting [5]) and in series [2] (setting [6]) were 0.433%, 0.156% and 6.013%, respectively.
For `N#Cc1ccccc1Cn1c(N2CCC[C@@H](N)C2)ncc(F)c1=O` [amorphous Form 1, tartrate salt of 2-[2-(3-(R)-amino-piperidin-1-yl)-5-fluoro-6-oxo-6H-pyrimidin-1-ylmethyl]-benzonitrile], the “solid form of post moisture sorption/desorption sample by XRPD” value in series [2] is listed as “tentatively identified as containing form A”. Also, the figures for the “Weight Change” value in series [2] (setting [4]), in series [2] (setting [5]) and in series [2] (setting [6]) were 0.868%, −0.054% and 13.393%, respectively. The “initial weight gain from ambient conditions to 5% RH” value in series [2] (moisture sorption/desorption) is listed as “approximately 0.2%”. Moreover, the “weight gain between 5% and 95% RH” value in series [2] (moisture sorption/desorption) is reported as 5.8%; in series [2] (moisture sorption/desorption, listed as freeze dried Compound I), around 13.5%. For the same molecule, the “XRPD Pattern after RH stress” value is recorded as “Amorphous” in series [3] (6% RH stress); “Amorphous” in series [3] (33% RH stress); “Amorphous” in series [3] (58% RH stress); “Form B” in series [3] (75% RH stress); “Pattern F” in series [3] (84% RH stress).
Regarding `N#Cc1ccccc1Cn1c(N2CCC[C@@H](N)C2)ncc(F)c1=O` [Form B, tartrate salt of 2-[2-(3-(R)-amino-piperidin-1-yl)-5-fluoro-6-oxo-6H-pyrimidin-1-ylmethyl]-benzonitrile], the “XRPD Result after slurry” value in series [1] is on record as “Form A”. Besides, the “solid form of post moisture sorption/desorption sample by XRPD” value in series [2] is reported as “form C”. The “Weight Change” value is reported as −6.30% in series [2] (desorption, 95% RH to about 5% RH, Tables 2A, 2B (relative to weight at start of the event)); −0.50% in series [2] (equilibration, initial weight to about 5% RH, Tables 2A, 2B (relative to weight at start of the event)); 6.64% in series [2] (sorption, 5% RH to about 95% RH, Tables 2A, 2B (relative to weight at start of the event)). For the same molecule, the “initial weight loss … to 5% RH” value in series [2] (moisture sorption/desorption) was “approximately 0.5%”. In series [2] (moisture sorption/desorption), the “weight gain between 5% and 95% RH” value came to 6.6%.
